Assay results published in patent US4835160A, “Derivatives of pyridoindole, having anti-tumor properties” (Sanofi, priority 1986, dated 1989).

Columns and labels:
[1] = tested on: leukemia tumour line L 1210; test: In vitro cytotoxic activity on leukemia tumour line L 1210; format: cell-based; details: L 1210, 48 hours contact, 37° C.; read-out: I D 50 (concentration which inhibits the proliferation of the cells by 50%)
Procedure: (1) In vitro: ([…] et al., Chem. Biol. Interaction, 1979, 25, 45-58). The cytotoxic activity of the compounds of the invention has been evaluated by in vitro tests. These tests consist of adding increasing concentrations of the compound under test to a cellular culture of the leukemia tumour line L 1210 in an exponential phase of growth. The cellules are incubated at 37° C. in a CO2 incubator and counted every 24 hours. The calculation of the I D 50 (concentration of the product, expressed in 1^-1 micromole, which inhibits the proliferation of the cells by 50%) is made after 48 hours contact.

leukemia P 388 [2] = test: Test of leukemia P 388; IP/IP, D1-5; format: in vivo, CDF1 hybrid mice; details: D1-D5; for Number of survivors: day D30; for T/C %: survival time
Procedure: (2) In vivo: (GERAN et al., Cancer Chemother., 1972, 2, 07-57):
(§1) The antitumour activity was tested in vivo on various tumours inoculated in various ways according to the following general protocol:
(§2) All the male or female mice are inoculated on day D0 with a known quantity of viable tumour cells for ascitic tumours or with a known tumour fragment for solid tumours.
(§3) They are then distributed into various groups. Each group, corresponding to the animals treated by the product under test, is made up of 10 mice. The product under test is dissolved in distilled water and it is administered n times (Dx-Dy), n, y, and x varying according to the protocol chosen, at the rate of 0.1 ml of solution per 10 g by weight of mice treated and at specific doses for each protocol.
(§4) The "negative control" group, corresponding to the animals which are not treated by the product, contains 2√N animals, N being equal to or greater than the total number of mice treated by the product in the same experiment.
(§5) Finally, the tests can also be carried out at the same time as the study of a group called "positive control", of ten animals, which is treated by a molecule, known for its antitumour activity and which can vary according to the protocol chosen, in the same conditions as the groups treated by the product under test.
(§6) The antitumour activity is evaluated, in the case of ascitic tumours, by considering the increase in the survival time of the animals treated in comparison to that of the animals in the "negative control" group, according to the formula: [formula]
The criterion for activity varies according to the protocol.
(§7) Also, a product is considered as toxic at the dose studied when this T/C value is equal to or less than 85%. In addition, a product is also considered as toxic at the dose studied when the weight variation, expressed in grams and calculated by the formula: […]
"Average weight of the group measured on day 5--Average weight of the same group measured on day 1"
is equal to or less than 4 g.
(a) Test of lelukemia P 388; IP/IP, D1-5 (GERAN et al., Cancer Chemother., 1972, 2, 07-57).
(§8) The tests are carried out with CDF1 hybrid mice inoculated by intraperitoneal route with 10^6 leukemia cells from the P 388 line. The compound under test is administered for 5 successive days (D1-D5) by intraperitoneal route. The positive control for the test is 5-fluorouracile which is administered in the same conditions. The number of surviving animals is evaluated on day D30.

leukemia P 388 [3] = test: Test for leukemia P 388 IP/D1 IV; format: in vivo, CDF1 hybrid mice; details: for Number of survivors: day D30; for T/C %: survival time
Procedure: as §1, §2, §3, §4, §5, §6, §7, §8
(f) Test for leukemia P 388 IP/D1 IV (GERAN et al., Cancer Chemother., 1972, 2, 07-57).
The test is carried out according to the same protocol as that described for test (a), the compound under test being administered by intravenous route only on day D1.

colic adenocarcinoma 38 [4] = test: Test for colic adenocarcinoma 38, SC/D1 IV; format: in vivo, BDF1 hybrid mice; details: 50 mg/kg IV
Procedure: as §1, §2, §3, §4
(§9) the antitumour activity is evaluated, in the case of solid tumours, by considering the reduction in the average tumour volume of the treated animals in comparison with the animals of the "negative control" group, according to the formula: [formula]
(§10) A value for T/C of less than 42% indicates an activity for the product at the studied dose.
(h) Test for colic adenocarcinoma 38, SC/D1 IV. (GERAN et al., Cancer Chemother., 1972, 2, 07-57).
(§11) The tests are carried out with BDF1 hybrid mice inoculated by subcutaneous route with a standardized tumour fragment of 3 mm^3. The compound under test is administered by intravenous route only on day D1.
The number of surviving animals is evaluated on day D38.

colic adenocarcinoma 38 [5] = test: Test for colic adenocarcinoma 38, SC/D2,9 IV; format: in vivo, BDF1 hybrid mice; design: Average tumour volume at D32: unit not given beside the values; details: D2 and D9; for Number of survivors: day D32; for T/C % at D32: tumour volume
Procedure: as §1, §2, §3, §4, §9, §10, §11
(i) Test for colic adenocarcinoma 38, SC/D2,9 IV (GERAN et al., Cancer Chemother., 1972, 2, 07-57).
This test is carried out according to the protocol described for test (h), the compound under test being administered by intravenous route on day D2 then on day D9.
The number of surviving animals is evaluated on day D32.

Cc1cnc(NCCCN(C)C)c2c3cc(O)ccc3n(C)c12 [Derivative No. 15, 4,5-dimethyl 1(3-dimethylaminopropylamino)-8-hydroxy-5H-pyrido[4,3-b]indole]
IC50 [1]: 10 nM
Median day of survival (leukemia P 388 [2]; 1.25 mg/kg IP): 18.0 days
Variation by weight (leukemia P 388 [2]; 1.25 mg/kg IP): -1.9 g
Number of survivors (leukemia P 388 [2]; 1.25 mg/kg IP): 0/10
T/C % (leukemia P 388 [2]; 1.25 mg/kg IP): 164%
Median day of survival (leukemia P 388 [2]; 2.5 mg/kg IP): 20.25 days
Variation by weight (leukemia P 388 [2]; 2.5 mg/kg IP): -1.9 g
Number of survivors (leukemia P 388 [2]; 2.5 mg/kg IP): 0/10
T/C % (leukemia P 388 [2]; 2.5 mg/kg IP): 184%
Median day of survival (leukemia P 388 [2]; 5 mg/kg IP): 26 days
Variation by weight (leukemia P 388 [2]; 5 mg/kg IP): -2.5 g
Number of survivors (leukemia P 388 [2]; 5 mg/kg IP): 1/10
T/C % (leukemia P 388 [2]; 5 mg/kg IP): 236%
Median day of survival (leukemia P 388 [2]; 10 mg/kg IP): 9.3 days
Variation by weight (leukemia P 388 [2]; 10 mg/kg IP): -4.1 g
Number of survivors (leukemia P 388 [2]; 10 mg/kg IP): 0/10
T/C % (leukemia P 388 [2]; 10 mg/kg IP): 85%
Median day of survival (leukemia P 388 [3]; 50 mg/kg IV): 17.75 days
Variation by weight (g) (leukemia P 388 [3]; 50 mg/kg IV): +0.5 g
Number of survivors (leukemia P 388 [3]; 50 mg/kg IV): 1/10
T/C % (leukemia P 388 [3]; 50 mg/kg IV): 163%
Median day of survival (leukemia P 388 [3]; 100 mg/kg IV): 25.75 days
Variation by weight (leukemia P 388 [3]; 100 mg/kg IV): -0.25 g
Number of survivors (leukemia P 388 [3]; 100 mg/kg IV): 4/10
T/C % (leukemia P 388 [3]; 100 mg/kg IV): 236%
Average tumour volume at D38 (colic adenocarcinoma 38 [4]): 2.73
Number of survivors (colic adenocarcinoma 38 [4]; day D38): 10/10
T/C % at D38 (colic adenocarcinoma 38 [4]; tumour volume): 30%
Average tumour volume at D32 (colic adenocarcinoma 38 [5]; 25 mg/kg IV): 0.0
Number of survivors (colic adenocarcinoma 38 [5]; 25 mg/kg IV): 10/10
T/C % at D32 (colic adenocarcinoma 38 [5]; 25 mg/kg IV): 0%
Average tumour volume at D32 (colic adenocarcinoma 38 [5]; 50 mg/kg IV): 0.0
Number of survivors (colic adenocarcinoma 38 [5]; 50 mg/kg IV): 10/10
T/C % at D32 (colic adenocarcinoma 38 [5]; 50 mg/kg IV): 0%
